How the values were obtained:
[1] = system: dopaminergic neurons in mesencephalic neuron-enriched cultures; assay: [3H]DA uptake in neuron-enriched cultures (direct, conditioned media, reconstituted); assay type: cell-based, rat; details: neuron-enriched cultures, 7 days; drug 0.6 mM or conditioned medium
Method: Mixed-glia cultures were first prepared from brains of 1-day-old Fisher 344 rat pups, as described previously (Liu, et al. 2001). Mechanically dissociated brain cells (5×10^7) were seeded onto 150 cm^2 culture flasks in Dulbecco's modified Eagle's medium containing 10% heat-inactivated FBS, 2 mM L-glutamine, 1 mM sodium pyruvate, 100 μM non-essential amino acids, 50 U/ml penicillin, and 50 μg/ml streptomycin. The cultures were maintained at 37° C. in a humidified atmosphere of 5% CO2 and 95% air, and medium was replenished 4 days after the initial seeding. Upon reaching confluence (usually 12-14 days later), microglia were detached from astroglia by shaking the flasks for 5 hours at 180 rpm. Astroglia were then detached with trypsin-EDTA and seeded in the same culture medium. After five or more consecutive passages, cells were seeded onto 24-well plates (10^5/well) for experiments. Immunocytochemical staining of the astroglia enriched cultures with either anti-GFAP or anti-OX-42 antibody indicated astroglial purity of greater than 98% and less than 2% of microglia contamination.
Conditioned medium derived from rat primary astroglial cultures treated with vehicle (ACM) or 0.6 mM VPA (ACM-VPA) were harvested after 12, 24 and 48 hours of incubation. Midbrain neuron-enriched cultures seeded in 24-well plates at a density of 5×10^5 cells/well were treated with vehicle, VPA, ACM or ACM-VPA for 7 days. Neurotrophic effect was quantified by [^3H]DA uptake assay.
Rat mesencephalic neuron-enriched cultures are prepared from dissociated ventral mesencephalic cells from embryonic day 13-14 Fisher 344 rats were seeded first at a density of 5×10^5/well to poly-D-lysine-precoated 24-well culture plates. […] Three days later, the culture medium was replaced with the maintenance medium. Routinely, the seven-day-old neuron-enriched cultures were used for treatment. […] Of the Neu-N immunoractive neurons, 2.7-3.9% was TH-IR neurons.
To explore whether astroglial cells are also the main target of sodium butyrate-induced neurotrophic effect, we prepared media conditioned by incubation of astroglial cultures in the absence or presence 0.6 mM sodium butyrate. Conditioned medium derived from rat primary astroglial cultures treated with vehicle (ACM) or 0.6 mM sodium butyrate (ACM-Sodium butyrate) were harvested after 48 hours of incubation. Midbrain neuron-enriched cultures seeded in 24-well plates at a density of 5×10^5 cells/well were treated with vehicle, sodium butyrate, ACM or ACM-Sodium butyrate for 7 days. Seven days after treatment, neurotrophic effect for dopaminergic neurons was assessed by [^3H]DA uptake assays.
Various concentrations of 3-HM (0.1-5 μM) or vehicle were added to the following different cell cultures: neuron-enriched cultures (A); reconstituted cultures by adding 10% and 20% (5×10^4/well and 1×10^5/well) of microglia to the neuron-enriched cultures (B); reconstituted cultures by adding 40% and 50% (2×10^5/well and 2.5×10^5/well) of astroglia to the neuron-enriched cultures (C). Cultures are prepared as described in Example 25. The [^3H]DA uptake measurements were performed […] after treatment. Results were expressed as a percentage of the vehicle-treated control cultures and were the mean±SE from five (A) and four (B,C) independent experiments in triplicate. *P<0.05 and **P, 0.001 compared with the vehicle-treated control cultures. #P<0.05 compared with the augmented cultures with 40% astroglia. N, neuron-enriched cultures; N+10% (20%) MG: 10% (20%) of microglia were added back to the neuron-enriched cultures; N+40% (50%) AS: 40% (50%) of astroglia were added back to the neuron-enriched cultures.
To confirm the possible role of astroglia in the neurotrophic effect of 3-HM, conditioned media from astroglia-enriched cultures (prepared as described above) treated with either 3-HM (1-5 μM) or vehicle for 24 hours were prepared. […]

[2] = system: dopaminergic neurons in rat primary mesencephalic neuron-glia cultures; assay: DA uptake / TH-IR count in neuron-glia cultures without toxin (spontaneous DA neuronal death, neurotrophic effect); assay type: cell-based; details: sodium butyrate, indicated concentrations, 7 days
Method: In Example 23, [^3H]DA uptake assay and immunohistochemical analysis for TH-IR neurons were used to assess the viability of DA neurons in rat primary mesencephalic neuron-glia cultures in which approximately 1% of the neurons are dopaminergic. [^3H]DA uptake assays were performed as described in Example 1.
Rat primary mesencephalic neuron-glia cultures were prepared from the ventral mesencephalic tissues of embryonic day 13-14 Fisher 344 rats. Dissociated cells were seeded at a density of 5×10^5/well to poly-D-lysine-precoated 24-well plates. Cells were maintained at 37° C. in a humidified atmosphere of 5% CO2 and 95% air, in minimal essential medium containing 10% fetal bovine serum (FBS), 10% horse serum, 1 gm/l glucose, 2 mM L-glutamine, 1 mM sodium pyruvate, 100 μM non-essential amino acids, 50 U/ml penicillin, and 50 μg/ml streptomycin. Unless otherwise indicated, seven-day-old cultures were used for treatment.
Seven days after seeding, each well was treated with indicated concentration of VPA or its vehicle. Seven days after treatment, the viability of dopaminergic neurons was assessed by [^3H]DA uptake assays. Quantified results are expressed as mean±SEM of percentage of vehicle-treated cultures from three experiments performed in duplicate. *, p<0.05 compared with the corresponding vehicle-treated control cultures.
Next, the rat primary mesencephalic neuron-glia cultures were treated with 0.6 mM VPA for various times to determine the treatment time-dependency. Rat primary mesencephalic neuron-glia cultures in a 24-well plate were treated with 0.6 mM VPA or its vehicle for indicated time 7 days after seeding. The viability of dopaminergic neurons was assessed by [^3H]DA uptake assays, shown in FIG. 37 or counting of TH-IR neurons, shown in FIG. 38. Quantified results are expressed as mean±SEM of percentage of vehicle-treated control cultures from three experiments performed in duplicate. *, p<0.05 compared with the corresponding vehicle-treated control cultures. […] VPA time-dependently induces survival-promoting effects against spontaneous DA neuronal death in rat primary mesencephalic neuron-glia cultures.
Rat primary mesencephalic neuron-glia cultures seeded in a 24-well culture plate at density of 5×10^5 per well were treated with indicated concentrations of sodium butyrate or its vehicle 7 days after seeding. The viability of dopaminergic neurons was assessed by DA uptake assays 7 days after sodium butyrate addition.
Mesencephalic neuron-glia cultures, prepared as described above, were pretreated with vehicle or 3-HM (1-5 μM) before the treatment of LPS (10 ng/ml). Seven days later, the degeneration of dopaminergic neurons was determined by the functional assay of [^3H]DA uptake and by the morphometric measurement of dopaminergic neurons following immunostaining with an anti-TH antibody. [^3H]DA and immunostaining are performed as described above.

[3] = system: dopaminergic neurons in rat primary mesencephalic neuron-glia cultures; assay: [3H]DA uptake in LPS-treated mesencephalic neuron-glia cultures; assay type: cell-based; details: LPS 5 ng/ml, 7 days, LPS alone 40.1 ± 3.2; for DA uptake, LPS + Peptide 10^−13: peptide 10^−13, 30 min pretreatment; for DA uptake, LPS + Peptide 10^−14: peptide 10^−14, 30 min pretreatment; for DA uptake, LPS + Peptide 10^−15: peptide 10^−15, 30 min pretreatment
Method: Neuron-glia cultures were prepared from the ventral mesencephalic tissues of embryonic day 13-14 Fisher F344 rats or day 12-13 wild-type C57BL/6J (gp91phox^+/+) mice. Dissociated cells were seeded at 1×10^5/well and 5×10^5/well to poly-D-lysine-coated 96-well and 24-well plates, respectively. Cells were maintained at about 37° C. in a humidified atmosphere of 5% CO2 and 95% air, in minimal essential medium (MEM) containing 10% fetal bovine serum (FBS), 10% horse serum (HS), 1 gm/l glucose, 2 mM L-glutamine, 1 mM sodium pyruvate, 100 μM nonessential amino acids, 50 U/ml penicillin, and 50 μg/ml streptomycin. Seven-day-old cultures were used for treatment.
Dextromethorphan (obtained from Sigma-Aldrich (St. Louis, Mo.) as dextromethorphan hydrobromide) was freshly prepared as a stock solution (1 mM) in ddH2O and sterile-filtered right before use. For treatment of the cultures, the DM was serially diluted (10×) with fresh culture medium containing 2% of fetal bovine and horse serum. The neuron-glia cultures were pretreated with 10^−5-10^−17M DM 30 minutes prior to treatment with 10 ng/ml of LPS.
Seven days after treatment, the degeneration of dopaminergic neurons was assessed by [^3H]-dopamine (DA) uptake assays. The [^3H]-DA uptake assays were performed as follows. Cultures were washed twice with warm Krebs-Ringer buffer (KRB, 16 mM sodium phosphate, 119 mM NaCl, 4.7 mM KCl, 1.8 mM CaCl2, 1.2 mM MgSO4, 1.3 mM EDTA, and 5.6 mM glucose; pH7.4) and then incubated for about 20 minutes at about 37° C. with 1 μM [^3H]-DA in KRB in order to allow for the uptake of DA. Afterwards, the cultures were washed (three times) with ice-cold KRB and the cells were collected in 1 N NaOH. Radioactivity was determined by liquid scintillation counting.
This example tests whether or not post-treatment with DM is still neuroprotective in LPS-induced neurotoxicity. Neuron-glia co-cultures as prepared in Example 1 were first treated with LPS (20 ng/ml) for twelve hours, and then LPS was removed by removing the media from the cultures and washing twice with PBS. Different concentrations of DM (10^−5, 10^−10, and 10^−14 M) were then added to the cultures and incubation was continued for another 6 or 7 days. The DA uptake and the superoxide production were measured as in Example 1 and 5.
Neuron-glia cell cultures were prepared as in Example 1, and pretreated with the various peptide fragments of Table 1 (peptide fragments were obtained from BACHEM) for 30 minutes followed by addition of 5 ng/ml of LPS. DA neurotoxicity was measured as an Example 1 at 7 days post treatment.
DA neurotoxicity was measured at 7 days post treatment as in Example 1. Dopaminergic neuronal death was determined at 7 days post treatment using immunocytochemical staining as in Example 2.
Neuron-glia cultures were prepared from the ventral mesencephalic tissues of embryonic day 13-14 rats. Dissociated cells were seeded at 1×10^5/well and 5×10^5/well to poly-D-lysine-coated 96-well and 24-well plates, respectively.

| Compound | increase in DA uptake [1] | neurotrophic effect (DA uptake) in neuron-glia culture [2] | DA uptake, LPS + Peptide 10^−13 [3] | DA uptake, LPS + Peptide 10^−14 [3] | DA uptake, LPS + Peptide 10^−15 [3] |
| --- | --- | --- | --- | --- | --- |
| CCCC(=O)[O-].[Na+] [sodium butyrate, Sodium Butyrate] | less than 2 fold | pronounced neurotrophic effect | – | – | – |
| Tyr-Gly-Gly-Phe-Leu-Arg-Arg-Ile-Arg-Pro-Lys-Leu-Lys-Trp-Asp-Asn-Gln (YGGFLRRIRPKLKWDNQ; listed as Homo sapiens) [DynA 1-17] | – | – | 52.1 ± 6.2% of the control cultures | 58.0 ± 6.5% of the control cultures | 51.0 ± 9.4% of the control cultures |
| DynA 2-17: peptide fragment of Dynorphin A (YGGFLRRIRPKLKWDNQ), residues 2-17 | – | – | 44.3 ± 8.2% of the control cultures | 62.7 ± 8.0% of the control cultures | 50.2 ± 6.9% of the control cultures |
